Assay results as given in PMC4991342 (Virulence, 2016).

How the values were obtained:
[1] = test system: mouse lymphoma L5178Y/TK^+/− cells (clone 3.7.2C); assay: In vitro mammalian cell gene mutation test; assay type: cell-based; settings: 4 h without S9-mix
P. falciparum malaria = settings: oral monotherapy; clinical phase II; cited from earlier work
[2] = test system: acute urinary tract infections; settings: 70 patients with acute urinary tract infections; no details published; cited from earlier work
[3] = target: recombinant P. falciparum DXP reductoisomerase; settings: read-out: IC50 for recombinant P. falciparum DXP reductoisomerase; cited from earlier work

Row | SMILES | MF (mutant frequency) ([1]; MMS 10 µg/ml (positive control), relevant increase) | mean MF compared to the negative controls ([1]; MMS 10 µg/ml) | recrudescence (P. falciparum malaria) | antibacterial efficacy [2] | IC50 [3]
1 | COS(C)(=O)=O [MMS, methyl methanesulfonate] | 475.5 × 10^−6 | 626% | – | – | –
2 | O=CN(O)CCCP(=O)(O)O [fosmidomycin] | – | – | high rate of recrudescent infections | strong antibacterial efficacy | 32 nM
